# Peptide text beside a SMILES is read from it.
# How the values were obtained:
# peptide 9 = biological target: T1, peptide 9 (Mus musculus, UniProt P02469); assay: Heparin/peptide interaction specificity, competition on coated peptide 9 (Example 4); format: binding; details: 3.1 μg per well of peptide 9 coated, FIG. 7
# T1 construct: made in house; host or cells: chemical solid-phase (Merrifield) synthesis, no expression host
# Procedure: (§1) To check whether charge was the main factor in the interaction between heparin and peptides 9 and 13, or whether the heparin structure was also critical to this interaction heparin along with two other sulfated glucosaminoglycans, dextran sulfate and chondroitin sulfate were used in competition experiments. A standard amount of 3.1 μg per well of peptide 9 and 12.5 ug per well of peptide 13 were coated on 96-well plates as described above. […] Wells were treated for two hours with 2 mg/ml BSA in wash buffer. Then, a final volume of 50 μls was added to each well, containing a standard amount of 3H-heparin (50,000 cpm per well) and various amounts of non-radioactiveheparin, dextran sulfate and […]. After incubating for two hours at 37° C., the wells were washed and radioactivity was counted as described above in Example 1. […] Therefore, the structure of heparin is a crucial factor for this interaction.
# peptide 13 = biological target: T2, peptide 13 (Mus musculus, UniProt P02469); assay: Heparin/peptide interaction specificity, competition on coated peptide 13 (Example 4); format: binding; details: 12.5 ug per well of peptide 13 coated, FIG. 8
# T2 construct: polypeptide F13 formally represents isolated laminin residues 1171-1188; made in house; host or cells: chemical solid-phase (Merrifield) synthesis, no expression host
# Procedure: as §1
# [1] = tested on: Bovine aortic endothelial cells; assay: Aortic endothelial cell adhesion assay (Example 5); format: cell-based; details: 0.1; 1.0; and 10.0 μg/per well adsorbed, 120 minutes at 37° C, FIG. 9
# Procedure: Bovine aortic endothelial cells were isolated according to the following protocol. Aortas were obtained from a local slaughterhouse, washed in cold phosphate buffered saline (PBS) (136 mM NaCl, 2.6 mM KCl, 15.2 mM Na2HP04, pH 7.2) and processed within 2 hours. Crude collagenase (CLS III, 125-145 units per mg dry weight, Cooper Biomedical) was used at 2 mg/ml in Dulbecco's modified Eagle's medium (DMEM) (GIBCO). The vessel was clamped at the distal end, filled with the collagenase-PBS solution and digestion was carried out for 10 minutes. The lumenal contents were harvested, followed by the addition of fresh collagenase for two additional 10-minute periods. The enzyme-cell suspensions were added to an equal volume of DMEM containing 10% fetal bovine serum (FBS) to inhibit the enzyme and spun in a centrifuge at 400×g for 10 minutes. The resulting cell pellet was resuspended in DMEM containing 10% FBS, 100 units/ml of penicillin G, 100 μg/ml of streptomycin and 100 μg/ml of crude fibroblast growth factor. Cells are cultured in 75 cm^2 flasks in a humidified 5% CO2 atmosphere at 37° C. Cultures were fed twice a week with the same medium and cells were used in assays when approximately 75% confluent. Cells were identified as endothelial in nature by characteristic cobblestone morphology, contact inhibition of growth upon reaching confluency, and positive immunofluorescent staining for factor VIII:RAg (Miles Laboratories) [S. Schwartz, In Vitro, 14, 966 (1978)]. Only endothelial cells, megakaryocytes and platelets are known to contain the factor VIII:RAg. This method routinely gives a high yield of endothelial cells with little contamination (less than 5%) by smooth muscle cells, pericytes or fibroblasts as judged by phase contrast microscopy as well as by immunostaining.
# Adhesion was measured using 96 well microtiter plates adsorbed with three different amounts (0.1; 1.0; and 10.0 μg/per well) of peptides 9, 11-18, BSA and laminin. Cultures of cells which were 60-80% confluent were metabolically labeled for 24 hours with the addition of 3 mCi/ml of ^3 H-amino acid mixture. On the day of the assay, the cells were harvested by trypsinization, the trypsin was inhibited by the addition of serum, and the cells were washed free of this mixture and resuspended in DMEM buffered with HEPES at pH 7.2. The adhesion medium also contained 2 mg/ml BSA. The cells were adjusted to a concentration of 3-4×10^4 /ml and 100 μls of this cell suspension was added to the wells. The assay mixture was then incubated at 37° C for 120 minutes. […] The solubilized cells were then quantitated using a liquid scintillation counter. […]
# [2] = Heparin binding to peptides coated on 96-well plastic plates (Example 2); details: 1 mg/ml to 1 μg/ml, two hours at 37° C., FIG. 5
# Procedure: In order to test the ability of the synthesized peptides (9 and 11-18) to bind to 96-well plastic plates (in which experiments with cultured cell lines can be performed), we did an experiment similar to that described above in Example 1. Stock solutions of peptides 9 and 11-18, laminin and BSA at a maximum concentration of 1 mg/ml were prepared and serially diluted in PBS+NaN3 producing final concentration from 1 mg/ml to 1 μg/ml. Fifty μl from each concentration was coated on the 96-well plates and left to dry overnight at 28° C. Then, wells were treated for two hours with […] of 2 mg/ml BSA in 6 mM phosphate, 100 mM NaCl, 68 μM CaCl2, pH 6.8 (wash buffer) in order to minimize non-specific binding. Next 50 μls of ^3 H-heparin (10 μg/ml) was added (50,000 cpm/well) for two hours at 37° C. The wells were then washed three times with wash buffer containing 0.05% Triton X-100 and finally they were incubated for thirty minutes at 60 C with 200 μl of 0.5 N NaOH and 1% SDS. The amount of ^3 H-heparin bound at each peptide concentration was quantitated as described above in Example 1.
# T1 sequence (P02469 662-681 limits assumed): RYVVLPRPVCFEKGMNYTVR
Molecule,"molar concentration needed for 50% inhibition of ^3 H-heparin binding, relative to heparin (peptide 9)","molar concentration needed for 50% inhibition of ^3 H-heparin binding, relative to heparin (peptide 13)",endothelial cell adhesion [1],binding of ^3 H-heparin [2]
dextran sulfate,Ten to one hundred times more molar concentration,Ten to one hundred times more molar concentration,,
dermatan sulfate,Ten to one hundred times more molar concentration,Ten to one hundred times more molar concentration,,
"VEGVEGPRCDKCTRGY [Peptide F12, 16-mer, laminin B1 chain aa 1133-1148]",,,potent promoters of endothelial cell adhesion,
laminin,,,,bind heparin very well
"CC[C@H](C)[C@H](NC(=O)[C@H](Cc1ccc(O)cc1)NC(=O)CNC(=O)[C@@H]1CCCN1C(=O)[C@H](CC(=O)O)NC(=O)[C@H](CS)NC(=O)[C@@H](N)C(C)C)C(=O)NCC(=O)N[C@@H](CO)C(=O)N[C@@H](CCCNC(=N)N)C(=O)O [Peptide F18, VCDPGYIGSR] (H-VCDPGYIGSR-OH)",,,potent promoters of endothelial cell adhesion,

# Source: patent US4870160A, “Polypeptides with laminin activity” (Regents of the University of Minnesota, priority 1987, dated 1989)
